Source: patent publication US20240317714A1, “3-[(1H-PYRAZOL-R-YL)OXY]PYRAZIN-2-AMINE COMPOUNDS AS HPK1 INHIBITOR AND USE THEREOF” (BeiGene, Ltd., priority 2020, published 2024)

Columns and labels:
[1] = target: HPK1 kinase (aal-346. Life Technologies) (Homo sapiens (Human), UniProt Q92918); assay: HPK Kinase Activity Assay at 1 mM ATP (TR-FRET); format: biochemical; conditions: HPK1 kinase 40 nM, 0.5 μM STK1 substrate, read-out: Enzymatic activity IC50
[2] = test system: pSLP76(S376) level in Jurkat cell line; assay: Cellular pSLP76(S376) HTRF Assay; format: cell-based; conditions: Homo sapiens, Jurkat, Jurkat cells, 2 h compound treatment, stimulated with 0.05 μg/mL anti-human CD3 (OKT3) for 30 min

Sequence of HPK1 kinase (aal-346. Life Technologies) (Q92918 1-346): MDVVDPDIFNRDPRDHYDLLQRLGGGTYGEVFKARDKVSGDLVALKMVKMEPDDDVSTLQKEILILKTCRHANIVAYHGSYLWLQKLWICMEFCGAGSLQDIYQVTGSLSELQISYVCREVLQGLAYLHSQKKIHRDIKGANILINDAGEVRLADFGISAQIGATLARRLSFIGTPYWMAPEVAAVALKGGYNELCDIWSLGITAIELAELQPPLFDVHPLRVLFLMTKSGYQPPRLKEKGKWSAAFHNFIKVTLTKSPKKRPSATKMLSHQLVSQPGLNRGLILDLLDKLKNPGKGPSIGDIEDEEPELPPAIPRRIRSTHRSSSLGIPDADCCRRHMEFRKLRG

Row | IC50 [1] | IC50 [2] | SMILES
1 | 34 nM | 111 nM | Cc1cc(-c2cnc(N)c(Oc3cnn(C4CCN(C)CC4)c3)n2)cc(C)c1CNC1COC1 [Example A55, 5-(3,5-dimethyl-4-((oxetan-3-ylamino)methyl)phenyl)-3-((1-(1-methylpiperidin-4-yl)-1H-pyrazol-4-yl)oxy)pyrazin-2-amine]
2 | 53 nM | 85 nM | Cc1cc(-c2cnc(N)c(Oc3cnn(C4CCN(C)CC4)c3)n2)cc(C)c1CNc1ccn(C)n1 [Example A56, 5-(3,5-dimethyl-4-(((1-methyl-1H-pyrazol-3-yl)amino)methyl)phenyl)-3-((1-(1-methylpiperidin-4-yl)-1H-pyrazol-4-yl)oxy)pyrazin-2-amine]
3 | 24 nM | 76 nM | Cc1cc(-c2cnc(N)c(Oc3cnn(C4CCN(C)CC4)c3)n2)cc(C)c1CNc1cnn(C)c1 [Example A57, 5-(3,5-dimethyl-4-(((1-methyl-1H-pyrazol-4-yl)amino)methyl)phenyl)-3-((1-(1-methylpiperidin-4-yl)-1H-pyrazol-4-yl)oxy)pyrazin-2-amine]
4 | 29 nM | 69 nM | Cc1cc(-c2cnc(N)c(Oc3cnn(C4CCN(C)CC4)c3)n2)cc(C2(O)CCOCC2)c1 [Example A58, 4-(3-(5-amino-6-((1-(1-methylpiperidin-4-yl)-1H-pyrazol-4-yl)oxy)pyrazin-2-yl)-5-methylphenyl)tetrahydro-2H-pyran-4-ol]
5 | 8.2 nM | 51 nM | C[C@@H]1COCCN1c1cc(-c2cnc(N)c(Oc3cnn(C4CCN(C)CC4)c3)n2)cc(C2(O)COC2)c1 [Example A59, (R)-3-(3-(5-amino-6-((1-(1-methylpiperidin-4-yl)-1H-pyrazol-4-yl)oxy)pyrazin-2-yl)-5-(3-methylmorpholino)phenyl)oxetan-3-ol]
6 | 40 nM | 91 nM | Cc1cc(-c2cnc(N)c(Oc3cnn(C4CCN(C)CC4)c3)n2)cc(C)c1CNC1(C)COC1 [Example A60, 5-(3,5-dimethyl-4-(((3-methyloxetan-3-yl)amino)methyl)phenyl)-3-((1-(1-methylpiperidin-4-yl)-1H-pyrazol-4-yl)oxy)pyrazin-2-amine]
7 | 10 nM | 44 nM | Cc1cc(-c2cnc(N)c(Oc3cnn(C4CCN(C)CC4)c3)n2)cc([C@@H]2CCC(=O)N2)c1 [Example A61B, (S)-5-(3-(5-amino-6-((1-(1-methylpiperidin-4-yl)-1H-pyrazol-4-yl)oxy)pyrazin-2-yl)-5-methylphenyl)pyrrolidin-2-one]
8 | 48 nM | 79 nM | Cc1cc(-c2cnc(N)c(Oc3cnn(C4CCN(C)CC4)c3)n2)cc(C)c1CNS(=O)(=O)N(C)C [Example A62, 5-(4-[[(dimethylsulfamoyl)amino]methyl]-3,5-dimethylphenyl)-3-[[1-(1-methylpiperidin-4-yl)pyrazol-4-yl]oxy]pyrazin-2-amine]
9 | 39 nM | 102 nM | Cc1cc(-c2cnc(N)c(Oc3cnn(C4CCN(C)CC4)c3)n2)cc(C)c1C1(O)COC1 [Example A63, 3-(4-(5-amino-6-((1-(1-methylpiperidin-4-yl)-1H-pyrazol-4-yl)oxy)pyrazin-2-yl)-2,6-dimethylphenyl)oxetan-3-ol]
10 | 16 nM | 45 nM | Cc1cc(-c2cnc(N)c(Oc3cnn(C4CCN(C)CC4)c3)n2)cc(C)c1CNC(=O)NC1(C(F)(F)F)CC1 [Example A64, 1-(4-(5-amino-6-((1-(1-methylpiperidin-4-yl)-1H-pyrazol-4-yl)oxy)pyrazin-2-yl)-2,6-dimethylbenzyl)-3-(1-(trifluoromethyl)cyclopropyl)urea]
11 | 18 nM | 84 nM | Cc1cc(-c2cnc(N)c(Oc3cnn(C4CCN(C)CC4)c3)n2)cc(C2(O)CCCC2)c1 [Example A65, 1-(3-(5-amino-6-((1-(1-methylpiperidin-4-yl)-1H-pyrazol-4-yl)oxy)pyrazin-2-yl)-5-methylphenyl)cyclopentan-1-ol]
12 | 36 nM | 132 nM | Cc1cc(-c2cnc(N)c(Oc3cnn(C4CCN(C)CC4)c3)n2)cc(C)c1N1CCOCC1 [Example A66, 5-(3,5-dimethyl-4-morpholinophenyl)-3-((1-(1-methylpiperidin-4-yl)-1H-pyrazol-4-yl)oxy)pyrazin-2-amine]
13 | 17 nM | 76 nM | Cc1cc(-c2cnc(N)c(Oc3cnn(C4CCN(C)CC4)c3)n2)cc(C)c1CNc1ncco1 [Example A67, N-(4-(5-amino-6-((1-(1-methylpiperidin-4-yl)-1H-pyrazol-4-yl)oxy)pyrazin-2-yl)-2,6-dimethylbenzyl)oxazol-2-amine]
14 | 51 nM | 157 nM | Cc1cc(-c2cnc(N)c(Oc3cnn(C4CCN(C)CC4)c3)n2)cc(C)c1CNc1ncn(C)n1 [Example A68, 5-(3,5-dimethyl-4-(((1-methyl-1H-1,2,4-triazol-3-yl)amino)methyl)phenyl)-3-((1-(1-methylpiperidin-4-yl)-1H-pyrazol-4-yl)oxy)pyrazin-2-amine]
15 | 57 nM | 84 nM | Cc1cc(-c2cnc(N)c(Oc3cnn(C4CCN(C)CC4)c3)n2)cc(C2(O)CCOC2)c1 (centres unmarked) [Example A69, 3-(3-(5-amino-6-((1-(1-methylpiperidin-4-yl)-1H-pyrazol-4-yl)oxy)pyrazin-2-yl)-5-methylphenyl)tetrahydrofuran-3-ol]
16 | 6.7 nM | 76 nM | CCC(C)(O)c1cc(C)cc(-c2cnc(N)c(Oc3cnn(C4CCN(C)CC4)c3)n2)c1 (centres unmarked) [Example A70, 2-(3-(5-amino-6-((1-(1-methylpiperidin-4-yl)-1H-pyrazol-4-yl)oxy)pyrazin-2-yl)-5-methylphenyl)butan-2-ol]
17 | 26 nM | 39 nM | Cc1cc(-c2cnc(N)c(Oc3cnn(C4CCN(C)CC4)c3)n2)cc(C)c1CNS(=O)(=O)N1CCOCC1 [Example A71, N-(4-(5-amino-6-((1-(1-methylpiperidin-4-yl)-1H-pyrazol-4-yl)oxy)pyrazin-2-yl)-2,6-dimethylbenzyl)morpholine-4-sulfonamide]
18 | 5.6 nM | 59 nM | CN1CCC(n2cc(Oc3nc(-c4cc(N5CCOCC5)cc(C5(O)COC5)c4)cnc3N)cn2)CC1 [Example A72, 3-(3-(5-amino-6-((1-(1-methylpiperidin-4-yl)-1H-pyrazol-4-yl)oxy)pyrazin-2-yl)-5-morpholinophenyl)oxetan-3-ol]
19 | 11 nM | 59 nM | Cc1cc(-c2cnc(N)c(Oc3cnn(C4CCN(C)CC4)c3)n2)cc(C2(O)COC2)c1C [Example A73, 3-(5-(5-amino-6-(1-(1-methylpiperidin-4-yl)-1H-pyrazol-4-yloxy)pyrazin-2-yl)-2,3-dimethylphenyl)oxetan-3-ol]
20 | 10 nM | 41 nM | Cc1cc(-c2cnc(N)c(Oc3cnn(C4CCN(C)CC4)c3)n2)cc([C@]2(O)CCOC2)c1 [Example A74B, (R)-3-(3-(5-amino-6-((1-(1-methylpiperidin-4-yl)-1H-pyrazol-4-yl)oxy)pyrazin-2-yl)-5-methylphenyl)tetrahydrofuran-3-ol]
21 | 29 nM | 129 nM | Cc1cc(-c2cnc(N)c(Oc3cnn(C4CCN(C)CC4)c3)n2)cc(C)c1C1=CCOCC1 [Example A75, 5-(4-(3,6-dihydro-2H-pyran-4-yl)-3,5-dimethylphenyl)-3-((1-(1-methylpiperidin-4-yl)-1H-pyrazol-4-yl)oxy)pyrazin-2-amine]
22 | 5.8 nM | 62 nM | COC[C@@H]1COCCN1c1cc(-c2cnc(N)c(Oc3cnn(C4CCN(C)CC4)c3)n2)cc(C2(O)COC2)c1 [Example A76, (R)-3-(3-(5-amino-6-((1-(1-methylpiperidin-4-yl)-1H-pyrazol-4-yl)oxy)pyrazin-2-yl)-5-(3-(methoxymethyl)morpholino)phenyl)oxetan-3-ol]
23 | 38 nM | 91 nM | Cc1cc(-c2cnc(N)c(Oc3cnn(C4CCN(C)CC4)c3)n2)cc(C)c1N1CC2(COC2)C1 [Example A77, 5-(3,5-dimethyl-4-(2-oxa-6-azaspiro[3.3]heptan-6-yl)phenyl)-3-((1-(1-methylpiperidin-4-yl)-1H-pyrazol-4-yl)oxy)pyrazin-2-amine]
24 | 5.5 nM | 51 nM | CN1CCC(n2cc(Oc3nc(-c4cc(N5CC6(COC6)C5)cc(C5(O)COC5)c4)cnc3N)cn2)CC1 [Example A78, 3-(3-(5-amino-6-((1-(1-methylpiperidin-4-yl)-1H-pyrazol-4-yl)oxy)pyrazin-2-yl)-5-(2-oxa-6-azaspiro[3.3]heptan-6-yl)phenyl)oxetan-3-ol]
25 | 12 nM | 71 nM | CN1CCC(n2cc(Oc3nc(-c4cc(C5CCOCC5)cc(C5(O)COC5)c4)cnc3N)cn2)CC1 [Example A79, 3-(3-(5-amino-6-((1-(1-methylpiperidin-4-yl)-1H-pyrazol-4-yl)oxy)pyrazin-2-yl)-5-(tetrahydro-2H-pyran-4-yl)phenyl)oxetan-3-ol]
26 | 29 nM | 194 nM | C[C@@H]1COCCN1c1cc(-c2cnc(N)c(Oc3cnn(C4CCN(C)CC4)c3)n2)cc([C@@]2(O)CCOC2)c1 [Example A80A, (S)-3-(3-(5-amino-6-((1-(1-methylpiperidin-4-yl)-1H-pyrazol-4-yl)oxy)pyrazin-2-yl)-5-((R)-3-methylmorpholino)phenyl)tetrahydrofuran-3-ol]
27 | 5.4 nM | 48 nM | C[C@@H]1COCCN1c1cc(-c2cnc(N)c(Oc3cnn(C4CCN(C)CC4)c3)n2)cc([C@]2(O)CCOC2)c1 [Example A80B, (R)-3-(3-(5-amino-6-((1-(1-methylpiperidin-4-yl)-1H-pyrazol-4-yl)oxy)pyrazin-2-yl)-5-((R)-3-methylmorpholino)phenyl)tetrahydrofuran-3-ol]
28 | 37 nM | 72 nM | CC#Cc1c(C)cc(-c2cnc(N)c(Oc3cnn(C4CCN(C)CC4)c3)n2)cc1C1(O)COC1 [Example A81, 3-(5-(5-amino-6-((1-(1-methylpiperidin-4-yl)-1H-pyrazol-4-yl)oxy)pyrazin-2-yl)-3-methyl-2-(prop-1-yn-1-yl)phenyl)oxetan-3-ol]
